Experimental data from patent US20260042774A1, “CAMPTOTHECIN-7-ETHYLAMINE DERIVATIVE, PREPARATION METHOD THEREFOR, AND USE THEREOF” (HANGZHOU ADCORIS BIOPHARMA CO., LTD, priority 2022, published 2026).
Like-named read-outs stand apart in the source and are kept apart here.

Columns and labels:
Assay type in all cases: cell-based
[1] = test system: human gastric cancer cells NCI-N87; assay: Tumor cell growth inhibitory activity (CCK-8), NCI-N87
Method: (§1) Human esophageal cancer cells OE33 (human breast adenocarcinoma cells SK-BR-3, or human gastric cancer cells NCI-N87) was cultured in RPMI1640 (Cellmax) supplemented with 10% fetal bovine serum (Cellmax). Cells in the exponential growth phase were diluted to a concentration of 1×10^5 cells/mL by culture medium and added to 96-well cell culture plates at 100 μL per well, then returned back and incubated overnight in a 37° C. incubator with 5% CO2. On the following day, the compounds were diluted to concentrations of 10000 nM, 2000 nM, 400 nM, 80 nM, 16 nM, 3.2 nM, 0.64 nM, and 0.13 nM by culture medium and the diluted compounds were added to the 96-well cell culture plates at 2 μL per well, with three replicate wells for each concentration. Negative control and blank control groups without addition of compounds were added with 2 μL of the dilution liquid per well. After the addition of the compounds, the plates were returned back to the 37° C. incubator with 5% CO2 to continue the incubation for 72 h. After the incubation, the cell culture plates were removed, and the culture medium was aspirated using a pipette. Then, 100 μL of culture medium containing 10% CCK-8 was added to each well, and the plates were incubated at 37° C. for 3 h. After the incubation, the plates were removed, kept in the dark, and placed in an ELISA plate. Absorbance was measured at 630 nm as the reference wavelength and 450 nm as the test wavelength. The IC50 values (Table 2) were calculated using the four-parameter logistic regression method in GraphPad.

[2] = test system: Human esophageal cancer cells OE33; assay: Tumor cell growth inhibitory activity (CCK-8), OE33
Method: as §1

[3] = test system: MDA-MB-231; assay: Tumor cell growth inhibitory activity, MDA-MB-231
[4] = test system: NCI-H1975; assay: Tumor cell growth inhibitory activity, NCI-H1975
[5] = test system: human breast adenocarcinoma cells SK-BR-3; assay: Tumor cell growth inhibitory activity (CCK-8), SK-BR-3
Method: as §1

[6] = Homo sapiens, NCI-N87 cells, 72 h incubation, CCK-8, read-out: IC50 (nM) for inhibiting the growth of tumor cells, NCI-N87
[7] = Homo sapiens, OE33 cells, 72 h incubation, CCK-8, read-out: IC50 (nM) for inhibiting the growth of tumor cells, OE33
[8] = Homo sapiens, MDA-MB-231 cells, read-out: IC50 (nM) for inhibiting the growth of tumor cells, MDA-MB-231
[9] = Homo sapiens, NCI-H1975 cells, read-out: IC50 (nM) for inhibiting the growth of tumor cells, NCI-H1975
[10] = Homo sapiens, SK-BR-3 cells, 72 h incubation, CCK-8, read-out: IC50 (nM) for inhibiting the growth of tumor cells, SK-BR-3
[11] = read-out: IC50 (nM) for inhibiting the growth of tumor cells, NCI-N87, NCI-N87 cells, 72 h incubation, CCK-8
[12] = read-out: IC50 (nM) for inhibiting the growth of tumor cells, OE33, OE33 cells, 72 h incubation, CCK-8
[13] = read-out: IC50 (nM) for inhibiting the growth of tumor cells, SK-BR-3, SK-BR-3 cells, 72 h incubation, CCK-8
[14] = Homo sapiens, NCI-N87, 72 h, read-out: IC50 (nM) for inhibiting the growth of tumor cells, NCI-N87, NCI-N87 cells, 72 h incubation, CCK-8
[15] = Homo sapiens, OE33, 72 h, read-out: IC50 (nM) for inhibiting the growth of tumor cells, OE33, OE33 cells, 72 h incubation, CCK-8
[16] = Homo sapiens, MDA-MB-231, read-out: IC50 (nM) for inhibiting the growth of tumor cells, MDA-MB-231, MDA-MB-231 cells
[17] = Homo sapiens, NCI-H1975, read-out: IC50 (nM) for inhibiting the growth of tumor cells, NCI-H1975, NCI-H1975 cells
[18] = Homo sapiens, SK-BR-3, 72 h, read-out: IC50 (nM) for inhibiting the growth of tumor cells, SK-BR-3, SK-BR-3 cells, 72 h incubation, CCK-8

SMILES	IC50 [1, 6]	IC50 [2, 7]	IC50 [3, 8]	IC50 [4, 9]	IC50 [5, 10]	also measured
CC[C@@]1(O)C(=O)OCc2c1cc1n(c2=O)Cc2c-1nc1cc3c(cc1c2CCN[C@@H](C)COC)OCCO3 [Compound 45, 7-(2-((S)-Methoxyisopropyl)amino)ethyl-10,11-ethylenedioxycamptothecin]	2.46 nM	10.3 nM	960 nM	106 nM	18.5 nM	–
CC[C@@]1(O)C(=O)OCc2c1cc1n(c2=O)Cc2c-1nc1cc(F)c(C)cc1c2CCNC1CCOCC1 [Compound 4, 7-(2-(Tetrahydropyran-4-yl)amino)ethyl-10-methyl-11-fluorocamptothecin]	2.48 nM	4.39 nM	321 nM	247 nM	6.12 nM	–
CC[C@@]1(O)C(=O)OCc2c1cc1n(c2=O)Cc2c-1nc1cc3c(cc1c2CCNCCN=[N+]=[N-])OCO3 [Compound 16, 7-(2-(2-Azidoethyl)amino)ethyl-10,11-methylenedioxycamptothecin]	–	–	–	–	–	IC50 [1, 11]: 1.01 nM; IC50 [2, 12]: 3.13 nM; IC50 ([3]; read-out: IC50 (nM) for inhibiting the growth of tumor cells, MDA-MB-231, MDA-MB-231 cells): 116 nM; IC50 ([4]; read-out: IC50 (nM) for inhibiting the growth of tumor cells, NCI-H1975, NCI-H1975 cells): 9.22 nM; IC50 [5, 13]: 8.96 nM
CC[C@@]1(O)C(=O)OCc2c1cc1n(c2=O)Cc2c-1nc1cc3c(cc1c2CCN[C@@H](C)CN=[N+]=[N-])OCO3 [Compound 29, 7-(2-((S)-Azidoisopropyl)amino)ethyl-10,11-methylenedioxycamptothecin]	–	–	–	–	–	IC50 [1, 14]: 0.84 nM; IC50 [2, 15]: 1.4 nM; IC50 [3, 16]: 32.7 nM; IC50 [4, 17]: 5.56 nM; IC50 [5, 18]: 2 nM
CC[C@@]1(O)C(=O)OCc2c1cc1n(c2=O)Cc2c-1nc1cc(F)c(C)cc1c2CCN[C@@H](C)CCO [Compound 9, 7-(2-((S)-4-Hydroxybutan-2-yl)amino)ethyl-10-methyl-11-fluorocamptothecin]	1.6 nM	6.59 nM	173 nM	121 nM	14.1 nM	–
CC[C@@]1(O)C(=O)OCc2c1cc1n(c2=O)Cc2c-1nc1cc3c(cc1c2CCNC1CCOCC1)OCCO3 [Compound 43, 7-(2-(Tetrahydropyran-4-yl)amino)ethyl-10,11-ethylenedioxycamptothecin]	7.43 nM	39.3 nM	243 nM	58.7 nM	81.8 nM	–
CC[C@@]1(O)C(=O)OCc2c1cc1n(c2=O)Cc2c-1nc1cc(F)c(F)cc1c2CCNC1CCOCC1 [Compound 13, 7-(2-(Tetrahydropyran-4-yl)amino)ethyl-10,11-difluorocamptothecin]	0.93 nM	1.96 nM	72.7 nM	9.83 nM	5.63 nM	–
CC[C@@]1(O)C(=O)OCc2c1cc1n(c2=O)Cc2c-1nc1cc3c(cc1c2CCN[C@H]1CCOC1)OCO3 [Compound 35, 7-(2-(N-(S)-Tetrahydrofuran-3-ylamino))ethyl-10,11-methylenedioxycamptothecin]	–	–	–	–	–	IC50 [1, 14]: 54 nM; IC50 [2, 15]: 2.18 nM; IC50 [3, 16]: 73.5 nM; IC50 [4, 17]: 18.5 nM; IC50 [5, 18]: 0.87 nM
CC[C@@]1(O)C(=O)OCc2c1cc1n(c2=O)Cc2c-1nc1cc(F)c(C)cc1c2CCNCCN=[N+]=[N-] [Compound 8, 7-(2-(2-Azidoethyl)amino)ethyl-10-methyl-11-fluorocamptothecin]	0.68 nM	3.26 nM	80.4 nM	18.5 nM	4.92 nM	–
CC[C@@]1(O)C(=O)OCc2c1cc1n(c2=O)Cc2c-1nc1cc3c(cc1c2CCNCC(F)F)OCO3 [Compound 24, 7-(2-(2-Difluoroethyl)amino)ethyl-10,11-methylenedioxycamptothecin]	–	–	–	–	–	IC50 [1, 14]: 0.24 nM; IC50 [2, 15]: 0.56 nM; IC50 [3, 16]: 78.2 nM; IC50 [4, 17]: 15.6 nM; IC50 [5, 18]: 2.96 nM
C[C@@]1(O)C(=O)OCc2c1cc1n(c2=O)Cc2c-1nc1cc3c(cc1c2CCNC(=O)C(F)F)OCO3 [Compound 36, 7-(2-Difluoroacetylamino)ethyl-10,11-methylenedioxycamptothecin]	7.66 nM	7.24 nM	110 nM	38.7 nM	2.8 nM	–
CC[C@@]1(O)C(=O)OCc2c1cc1n(c2=O)Cc2c-1nc1cc3c(cc1c2CCN(C(=O)CO)[C@@H](C)COC)OCO3 [Compound 30, 7-(2-(N-Hydroxyacetyl((S)-methoxyisopropyl))amino)ethyl-10,11-methylenedioxycamptothecin]	1.56 nM	6.47 nM	98.5 nM	15.4 nM	6.23 nM	–
CC[C@@]1(O)C(=O)OCc2c1cc1n(c2=O)Cc2c-1nc1cc(F)c(C)c3c1c2[C@@H](NC(=O)CO)CC3 [Dxd, reference compound]	–	–	–	–	–	IC50 ([1]; NCI-N87 cells, 72 h incubation, CCK-8, read-out: IC50 (nM) for inhibiting the growth of tumor cells, NCI-N87): 2.48 nM; IC50 ([2]; OE33 cells, 72 h incubation, CCK-8, read-out: IC50 (nM) for inhibiting the growth of tumor cells, OE33): 7.01 nM; IC50 ([3]; MDA-MB-231 cells, read-out: IC50 (nM) for inhibiting the growth of tumor cells, MDA-MB-231): 135 nM; IC50 ([4]; NCI-H1975 cells, read-out: IC50 (nM) for inhibiting the growth of tumor cells, NCI-H1975): 286 nM; IC50 ([5]; SK-BR-3 cells, 72 h incubation, CCK-8, read-out: IC50 (nM) for inhibiting the growth of tumor cells, SK-BR-3): 9.69 nM
CC[C@@]1(O)C(=O)OCc2c1cc1n(c2=O)Cc2c-1nc1cc3c(cc1c2CCNCCOC)OCCO3 [Compound 42, 7-(2-(2-Methoxyethyl)amino)ethyl-10,11-ethylenedioxycamptothecin]	9.96 nM	9.95 nM	94.8 nM	26.6 nM	18 nM	–
CC[C@@]1(O)C(=O)OCc2c1cc1n(c2=O)Cc2c-1nc1cc3c(cc1c2CCNCCOC)OCO3 [Compound 17, 7-(2-(2-Methoxyethyl)amino)ethyl-10,11-methylenedioxycamptothecin]	–	–	–	–	–	IC50 [1, 11]: 0.7 nM; IC50 [2, 12]: 2.49 nM; IC50 [3, 16]: 103 nM; IC50 [4, 17]: 9.09 nM; IC50 [5, 13]: 6.53 nM
